{
  "source": "paper PMC4666783",
  "about": "(Organic & biomolecular chemistry, 2015)",
  "key": {"[1]": {"system": "HIV-1", "assay": "Antiviral activity, MTT assay", "format": "cell-based", "conditions": "for pIC50: Human immunodeficiency virus 1, read-out: IC50 (antiviral); for antiviral potency: result in words, comparator as stated"}, "[2]": {"biological_target": "HIV-1 protease (Human immunodeficiency virus type 1 group M subtype B, UniProt P04585)", "assay": "HIV-1 protease enzyme inhibition, assay developed by Toth and Marshall", "format": "biochemical", "conditions": "for enzyme inhibitory activity: result in words, comparator as stated"}, "[3]": {"system": "HIVDRV^RP20 drug resistant strains of HIV", "assay": "microbe, parasite or virus in culture", "format": "cell-based, HIV-1"}},
  "note": "pIC50, pKi: −log10 of the molar value. Like-named read-outs stand apart in the source and are kept apart here.",
  "data": [
    {"molecule": "CC(C)CN(C[C@@H](O)[C@H](Cc1ccccc1)NC(=O)O[C@H]1CO[C@H]2OCC[C@H]21)S(=O)(=O)c1ccc(N)cc1", "note": "[Darunavir, darunavir, reference compound]", "values": [
      {"measurement": "pIC50", "setting": "[1]", "value": 8.80}
    ]},
    {"molecule": "COc1ccc(S(=O)(=O)N(CC(C)C)C[C@@H](O)[C@H](Cc2ccccc2)NC(=O)O[C@H]2CCO[C@H]3OC[C@@H](OC)[C@H]32)cc1", "note": "[Inhibitor 30a, (3S,3aR,4S,7aS)-3-Methoxyhexahydro-2H-furo[2,3-b]pyran-4-yl (2S,3R)-3-hydroxy-4-(N-isobutyl-4-methoxyphenylsulfonamido)-1-phenylbutan-2-yl carbamate]", "values": [
      {"measurement": "pKi", "setting": "[2]; at least 5 data points, standard error less than 7%", "value": 8.86}
    ]},
    {"molecule": "COc1ccc(S(=O)(=O)N(CC(C)C)C[C@@H](O)[C@H](Cc2ccccc2)NC(=O)O[C@H]2CCO[C@H]3OC[C@H](OC)[C@H]32)cc1", "note": "[Inhibitor 30b, (3R,3aR,4S,7aS)-3-Methoxyhexahydro-2H-furo[2,3-b]pyran-4-yl (2S,3R)-3-hydroxy-4-(N-isobutyl-4-methoxyphenylsulfonamido)-1-phenylbutan-2-ylcarbamate]", "values": [
      {"measurement": "pKi", "setting": "[2]", "value": 11.35},
      {"measurement": "fold better enzymatic Ki compared to compound 30a", "setting": "[2]; 30b vs 30a", "value": "over 300 fold"},
      {"measurement": "pIC50", "setting": "[1]", "value": 9.70},
      {"measurement": "antiviral potency", "setting": "[1]", "value": "subnanomolar antiviral activity"}
    ]},
    {"molecule": "CO[C@H]1CO[C@@H]2OCC[C@H](OC(=O)N[C@@H](Cc3ccccc3)[C@H](O)CN(CC(C)C)S(=O)(=O)c3ccc(N)cc3)[C@@H]21", "note": "[Inhibitor 30c, (3R,3aR,4S,7aS)-3-Methoxyhexahydro-2H-furo[2,3-b]pyran-4-yl (2S,3R)-4-(4-amino-N-isobutylphenylsulfonamido)-3-hydroxy-1-phenylbutan-2-ylcarbamate]", "values": [
      {"measurement": "pKi", "setting": "[2]", "value": 10.43},
      {"measurement": "pIC50", "setting": "[1]", "value": 7.82}
    ]},
    {"molecule": "CCO[C@H]1CO[C@@H]2OCC[C@H](OC(=O)N[C@@H](Cc3ccccc3)[C@H](O)CN(CC(C)C)S(=O)(=O)c3ccc(OC)cc3)[C@@H]21", "note": "[Inhibitor 30d, (3R,3aR,4S,7aS)-3-Ethoxyhexahydro-2H-furo[2,3-b]pyran-4-yl (2S,3R)-3-hydroxy-4-(N-isobutyl-4-methoxyphenyl-sulfonamido)-1-phenylbutan-2-ylcarbamate]", "values": [
      {"measurement": "pKi", "setting": "[2]", "value": 11.48},
      {"measurement": "enzyme inhibitory activity", "setting": "[2]", "value": "comparable enzyme inhibitory activity"}
    ]},
    {"molecule": "COc1ccc(S(=O)(=O)N(CC(C)C)C[C@@H](O)[C@H](Cc2ccccc2)NC(=O)O[C@H]2CCO[C@H]3OC[C@H](OCc4ccccc4)[C@H]32)cc1", "note": "[Inhibitor 30e, (3R,3aR,4S,7aS)-3-(Benzyloxy)hexahydro-2H-furo[2,3-b]pyran-4-yl (2S,3R)-3-hydroxy-4-(N-isobutyl-4-methoxy-phenylsulfonamido)-1-phenylbutan-2-ylcarbamate]", "values": [
      {"measurement": "pKi", "setting": "[2]", "value": 10.92},
      {"measurement": "pIC50", "setting": "[1]", "value": 9.35}
    ]},
    {"molecule": "COc1ccc(S(=O)(=O)N(CC(C)C)C[C@@H](O)[C@H](Cc2ccccc2)NC(=O)O[C@H]2CCO[C@H]3OC[C@H](O)[C@H]32)cc1", "note": "[Inhibitor 30f, (3R,3aS,4S,7aS)-3-Hydroxyhexahydro-2H-furo[2,3-b]pyran-4-yl (2S,3R)-3-hydroxy-4-(N-isobutyl-4-methoxyphenyl-sulfonamido)-1-phenylbutan-2-ylcarbamate]", "values": [
      {"measurement": "pKi", "setting": "[2]", "value": 10.22},
      {"measurement": "fold less potent than compound 30b", "setting": "[2]; enzyme inhibitory and antiviral activity, 30f vs 30b", "value": 10, "unit": "fold"},
      {"measurement": "pIC50", "setting": "[1]", "value": 8.50},
      {"measurement": "antiviral activity against resistant variant", "setting": "[3]; HIVDRV^RP20, preliminary assessment", "value": "maintained full antiviral activity"},
      {"measurement": "pIC50", "setting": "[3]; Human immunodeficiency virus 1, read-out: IC50 against HIVDRV^RP20", "value": 8.48}
    ]},
    {"molecule": "CCN[C@H]1CO[C@@H]2OCC[C@H](OC(=O)N[C@@H](Cc3ccccc3)[C@H](O)CN(CC(C)C)S(=O)(=O)c3ccc(OC)cc3)[C@@H]21", "note": "[Inhibitor 30j, (3R,3aS,4S,7aS)-3-(Ethylamino)hexahydro-2H-furo[2,3-b]pyran-4-yl (2S,3R)-3-hydroxy-4-(N-isobutyl-4-methoxyphenylsulfonamido)-1-phenylbutan-2-ylcarbamate]", "values": [
      {"measurement": "antiviral potency", "setting": "[1]", "value": "subnanomolar antiviral activity"}
    ]},
    {"molecule": "CCN[C@H]1CO[C@@H]2OCC[C@H](OC(=O)N[C@@H](Cc3ccccc3)[C@H](O)CN(CC(C)C)S(=O)(=O)c3ccc(N)cc3)[C@@H]21", "note": "[Inhibitor 30k, (3R,3aS,4S,7aS)-3-(Ethylamino)hexahydro-2H-furo[2,3-b]pyran-4-yl (2S,3R)-4-(4-amino-N-isobutylphenylsulfonamido)-3-hydroxy-1-phenylbutan-2-ylcarbamate]", "values": [
      {"measurement": "antiviral potency", "setting": "[1]", "value": "significant reduction in antiviral potency"}
    ]},
    {"molecule": "CCCN[C@H]1CO[C@@H]2OCC[C@H](OC(=O)N[C@@H](Cc3ccccc3)[C@H](O)CN(CC(C)C)S(=O)(=O)c3ccc(OC)cc3)[C@@H]21", "note": "[Inhibitor 30l, (3R,3aS,4S,7aS)-3-(Propylamino)hexahydro-2H-furo[2,3-b]pyran-4-yl (2S,3R)-3-hydroxy-4-(N-isobutyl-4-methoxyphenylsulfonamido)-1-phenylbutan-2-ylcarbamate]", "values": [
      {"measurement": "fold reduction in antiviral potency compared to 30j", "setting": "[1]; 30l vs 30j", "value": "~3", "unit": "fold"}
    ]},
    {"molecule": "COc1ccc(S(=O)(=O)N(CC(C)C)C[C@@H](O)[C@H](Cc2ccccc2)NC(=O)O[C@H]2CCO[C@H]3OC[C@H](N(C)C)[C@H]32)cc1", "note": "[Inhibitor 30m, (3R,3aS,4S,7aS)-3-(Dimethylamino)hexahydro-2H-furo[2,3-b]pyran-4-yl (2S,3R)-3-hydroxy-4-(N-isobutyl-4-methoxyphenylsulfonamido)-1-phenylbutan-2-ylcarbamate]", "values": [
      {"measurement": "enzyme inhibitory activity", "setting": "[2]", "value": "reduction in enzyme Ki"},
      {"measurement": "fold improved antiviral activity over 30i", "setting": "[1]; 30m vs 30i", "value": 3, "unit": "fold"}
    ]}
  ]
}
